# Experimental data reported in patent US20180085362A1, “COMBINATION OF PHOSPHATIDYLINOSITOL-3-KINASE (PI3K) INHIBITOR AND A MTOR INHIBITOR” (Novartis AG, priority 2011, published 2018).
# Legend:
# [1] = test system: ZR-75-1 human breast cancer cell line; test: CellTiter-Glo cell proliferation assay, dose matrix, ZR-75-1; format: cell-based; conditions: for Amax (maximum fraction of inhibition): ZR-75-1, 72 hrs, fraction growth inhibition compare to DMSO control, everolimus 1 nM-27 nM, Compound I 4 nM-3 μM
# [2] = test system: T47-D human breast cancer cell line; test: CellTiter-Glo cell proliferation assay, dose matrix, T47-D; format: cell-based; conditions: 72 hrs; for Amax (maximum fraction of inhibition): fraction growth inhibition compare to DMSO control, everolimus 1 nM-27 nM, Compound I 4 nM-3 μM
# Procedure: The human breast cancer cell line T47-D is purchased from American Type Cell Collection. The T47-D human breast cancer cell line includes PIK3CA mutation.
# (§1) Cell viability is determined by measuring cellular ATP content using the CellTiter-Glo® Luminescent Cell Viability Assay (Promega #G7573) according to manufacturer's protocol.
# (§2) Single agent dose responding curves, IC50, IC90, and the Synergy are all analyzed using Chalice software (CombinatoRx, Cambridge Mass.). Synergy is calculated by comparing a combination's response to those of its single agents, against the drug-with-itself dose-additive reference model. Deviations from dose additivity can be assessed visually on an Isobologram or numerically with a Combination Index. Excess inhibition compare to additivity can also be plotted as a full dose-matrix chart to capture where the synergies occur. To quantify the overall strength of combination effects, a volume score VHSA=ΣX,Y InfX InfY (Idata−IHSA) is also calculated between the data and the highest-single-agent surface, normalized for single agent dilution factors fX,fY.
# The experiment setup is identical to the experiment procedure described above for the SKBR-3 model (FIG. 15).
# [3] = test system: SKBR-3 human breast cancer cell line; test: CellTiter-Glo cell proliferation assay, dose matrix, SKBR-3; format: cell-based; conditions: SKBR-3, 72 hrs; for Amax, the maximum fraction of inhibition: fraction growth inhibition compare to DMSO control, everolimus 1 nM-27 nM, Compound I 4 nM-3 μM
# Procedure: The human breast cancer cell line SKBR-3 is purchased from American Type Cell Collection. The SKBR-3 human breast cancer cell line is HER2 amplified.
# Single agent dose responding curves, IC50, IC90, and the Synergy are all analyzed using Chalice software (CombinatoRx, Cambridge Mass.). Synergy is calculated by comparing a combination's response to those of its single agents, against the drug-with-itself dose-additive reference model. Deviations from dose additivity can be assessed visually on an Isobologram or numerically with a Combination Index. Excess inhibition compare to additivity can also be plotted as a full dose-matrix chart to capture where the synergies occur. To quantify the overall strength of combination effects, a volume score VHSA=ΣX,Y, InfX InfY (Idata−IHSA) is also calculated between the data and the highest-single-agent surface, normalized for single agent dilution factors fX,fY.
# The cells are plated at 3000 cells per well in 384 well plates in triplicates, and treated with compound for 72 hrs before the measurement (FIG. 13).
# [4] = Toxicity (body weight, deaths) in DU145 xenograft study; format: in vivo, nude mice (nu/nu); design: key to Mean BW Nadir: — indicates no decrease in mean body weight is observed; conditions: for Deaths (TR/NTR): ten mice
# Procedure: Paclitaxel is administered via bolus tail veil injections (i.v.) once daily on alternate days for five doses (qod×5). The dosing volume, 10 mL/kg ( )0.2 mL/20 g mouse), is scaled to the weight to each animal as determined on the day of dosing, except on weekends, when the Friday BWs are carried forward.
# 11 groups of nude mice (n=10 per group) are treated as follows: Group 1 mice receives Vehicle 1 and Vehicle 2, and served as controls for all analyses. […] Groups 5-7 receives monotherapies with 2.5, 5, and 10 mg/kg RAD001, respectively. […] Group 11 receives 25 mg/kg paclitaxel.
# Animals are weighed on Days 1-5, and on each treatment day (except weekend days) until the end of the study. Acceptable toxicity for the maximum tolerated dose is defined as a group mean BW loss of less than 15% during the test, and not more than one treatment-related (TR) death among ten animals. Any animal with BW losses exceeding 20% for one measurement, is to be euthanized and classified as a TR death, unless it is the first death in the group. Non-treatment-related (NTR) deaths are to be categorized as NTRa (due to accident or error), NTRu (due to unknown causes), or NTRm (necropsy-confirmed tumor dissemination by invasion and/or metastasis).
# [5] = test system: DU145 human prostate carcinoma; test: Tumor growth inhibition, DU145 human prostate carcinoma nude mouse xenograft model; conditions: for Mean volume Change: Day 1 to Day 21; for T/C: Day 21
# [6] = test system: BT-474 human breast cancer cell line; test: CellTiter-Glo cell proliferation assay, dose matrix, BT-474; format: cell-based; conditions: BT-474, 72 hrs; for Amax (maximum fraction of inhibition): fraction growth inhibition compare to DMSO control, everolimus 1 nM-27 nM, Compound I 4 nM-3 μM
# Procedure: as §1, §2
# The experiment setup is identical to the experiment procedure described above for the SKBR-3 model (FIG. 14).
# [7] = single agent, read-out: IC50 (cell growth)
# [8] = Group 2: Compound I 12.5 mg/kg p.o. qd×21
# [9] = Group 3: Compound I 25 mg/kg p.o. qd×21
# [10] = Group 4: Compound I 50 mg/kg p.o. qd×21
# [11] = Group 5: RAD001 2.5 mg/kg p.o. qd×21
# [12] = Group 6: RAD001 5 mg/kg p.o. qd×21
# [13] = Group 7: RAD001 10 mg/kg p.o. qd×21
# [14] = Group 11: Paclitaxel 25 mg/kg i.v. qod×5
compound,measurement,setting,value
"Cc1nc(NC(=O)N2CCC[C@H]2C(N)=O)sc1-c1ccnc(C(C)(C)C(F)(F)F)c1 [Compound I, (S)-Pyrrolidine-1,2-dicarboxylic acid 2-amide 1-({4-methyl-5-[2-(2,2,2-trifluoro-1,1-dimethyl-ethyl)-pyridin-4-yl]-thiazol-2-yl}-amide)]",Amax (maximum fraction of inhibition),[1],around 0.16
same,Amax (maximum fraction of inhibition),[2],around 0.67
same,IC50,[2]; [7],~330 nM
same,"Amax, the maximum fraction of inhibition",[3],0.40
same,Mean BW Nadir,[4]; [8],—
same,Deaths (TR/NTR),[4]; [8],0/0
same,Mean BW Nadir,[4]; [9],—
same,Deaths (TR/NTR),[4]; [9],0/0
same,Mean BW Nadir,"[4]; Group 4: Compound I 50 mg/kg p.o. qd×21, % change from Day 1, nadir Day 8",−8.1%
same,Deaths (TR/NTR),[4]; [10],3/0
same,Mean volume Change,[5]; [8],501 mm^3
same,T/C,[5]; [8],(T/C = 64%)
same,Statistical Signif. vs. G1,"[5]; Group 2: Compound I 12.5 mg/kg, Kruskal-Wallis with Dunn's test",ns (vs. G1)
same,Mean volume Change,[5]; [9],129 mm^3
same,Statistical Signif. vs. G1,"[5]; Group 3: Compound I 25 mg/kg, Kruskal-Wallis with Dunn's test",*** (vs. G1) (*** = P < 0.001)
same,Mean volume Change,[5]; [10],150 mm^3
same,T/C,[5]; [10],(T/C = 19%)
same,Amax (maximum fraction of inhibition),[6],around 0.53
same,IC50,[6]; [7],~3000 nM
"CO[C@H]1C[C@@H]2CC[C@@H](C)[C@@](O)(O2)C(=O)C(=O)N2CCCC[C@H]2C(=O)O[C@H]([C@H](C)C[C@@H]2CC[C@@H](OCCO)[C@H](OC)C2)CC(=O)[C@H](C)/C=C(\C)[C@@H](O)[C@@H](OC)C(=O)[C@H](C)C[C@H](C)/C=C/C=C/C=C/1C [everolimus (RAD001), (1R,9S,12S,15R,16E,18R,19R, 21R,23S,24E,26E,28E,30S,32S,35R)-1,18-dihydroxy-12-{(1R)-2-[(1 S,3R,4R)-4-(2-hydroxyethoxy)-3-methoxycyclohexyl]-1-methylethyl}-19,30-dimethoxy-15,17,21,23,29,35-hexamethyl-11,36-dioxa-4-aza-tricyclo[30.3.1.04,9] hexatriaconta-16,24, 26,28-tetraene-2,3,10,14,20-pentaone]",IC50,"[1]; Homo sapiens, ZR-75-1, 72 h, read-out: IC50 (cell proliferation)",~15 nM
same,Amax (maximum fraction of inhibition),[1],0.55
same,Amax (maximum fraction of inhibition),[2],0.37
same,IC50 (cell growth),[2]; single agent,never achieved an IC50
same,"Amax, the maximum fraction of inhibition",[3],0.32
same,IC50 (cell proliferation),"[3]; single agent, 1 nM-27 nM",never achieved an IC50
same,Mean BW Nadir,[4]; [11],—
same,Deaths (TR/NTR),[4]; [11],0/0
same,Mean BW Nadir,[4]; [12],—
same,Deaths (TR/NTR),[4]; [12],0/0
same,Mean BW Nadir,[4]; [13],—
same,Deaths (TR/NTR),[4]; [13],0/0
same,Mean volume Change,[5]; [11],424 mm^3
same,T/C,[5]; [11],(T/C = 54%)
same,Statistical Signif. vs. G1,"[5]; Group 5: RAD001 2.5 mg/kg, Kruskal-Wallis with Dunn's test",ns (vs. G1)
same,Mean volume Change,[5]; [12],269 mm^3
same,T/C,[5]; [12],(T/C = 43%)
same,Statistical Signif. vs. G1,"[5]; Group 6: RAD001 5 mg/kg, Kruskal-Wallis with Dunn's test",* (vs. G1) (* = P < 0.05)
same,Mean volume Change,[5]; [13],341 mm^3
same,T/C,[5]; [13],(T/C = 43%)
same,Statistical Signif. vs. G1,"[5]; Group 7: RAD001 10 mg/kg, Kruskal-Wallis with Dunn's test",ns (vs. G1)
same,Amax (maximum fraction of inhibition),[6],0.36
same,IC50 (cell growth),[6]; single agent,never achieves an IC50
CC(=O)O[C@H]1C(=O)[C@@]2(C)[C@H]([C@H](OC(=O)c3ccccc3)[C@]3(O)C[C@H](OC(=O)[C@H](O)[C@@H](NC(=O)c4ccccc4)c4ccccc4)C(C)=C1C3(C)C)[C@]1(OC(C)=O)CO[C@@H]1C[C@@H]2O [Paclitaxel],Mean BW Nadir,"[4]; Group 11: Paclitaxel 25 mg/kg i.v. qod×5, % change from Day 1, nadir Day 12",−1.9%
same,Deaths (TR/NTR),[4]; [14],0/1
same,Mean volume Change,[5]; [14],898 mm^3
same,T/C,[5]; [14],(TIC = 115%)
same,Statistical Signif. vs. G1,"[5]; Group 11: Paclitaxel 25 mg/kg, Mann-Witney U test",ns (using
